From article PMC7356297, “Bicyclic Boronates as Potent Inhibitors of AmpC, the Class C β-Lactamase from Escherichia coli” (Biomolecules, 2020)
Several values for one entry are separate records, joined by “and”; a condition that tells them apart may be missing. Equal entries are not always repeated.

Experiments:
DH5α Escherichia coli = assay: Broth microdilution MIC of ceftazidime, strain without plasmid; assay type: cell-based; settings: read-out: Minimum Inhibitory Concentration Ceftazidime
Protocol: (§1) Minimum inhibitory concentrations (MICs) were determined by broth microdilution in triplicate and interpreted using published Clinical and Laboratory Standards Institute (CLSI) guidelines.
(§2) Ceftazidime (CAZ) was tested alone (0.25–256 μg mL^−1) against DH5α Escherichia coli and DH5α E. coli containing the pAD7-AmpCEC plasmid and in combination with CB2, CB3, TAN, and VAB (all tested at a fixed concentration of 4 μg mL^−1) using the DH5α E. coli strain containing the pAD7-AmpCEC plasmid.

[1] = system: DH5α E. coli containing the pAD7-AmpCEC plasmid; assay: Broth microdilution MIC of ceftazidime alone or with inhibitor, AmpCEC producing strain; assay type: cell-based, Escherichia coli
Protocol: as §1, §2

[2] = target: T1, AmpC from Escherichia coli (AmpCEC) (Escherichia coli, UniProt P00811); assay: Steady-state competition kinetics of AmpCEC (100 nM) with fluorescent substrate FC-5 (Kiapp, k2/K); assay type: biochemical; settings: for Ki: Kiapp, apparent inhibition constant corrected with KM of FC-5; for kinact/KI: pH 7.5, read-out: k2/K, 100 nM AmpCEC, 5 µM FC-5
T1 construct: made in house; host or cells: E. coli W3110 (pAD7 vector)
T1 sequence (P00811 20-377): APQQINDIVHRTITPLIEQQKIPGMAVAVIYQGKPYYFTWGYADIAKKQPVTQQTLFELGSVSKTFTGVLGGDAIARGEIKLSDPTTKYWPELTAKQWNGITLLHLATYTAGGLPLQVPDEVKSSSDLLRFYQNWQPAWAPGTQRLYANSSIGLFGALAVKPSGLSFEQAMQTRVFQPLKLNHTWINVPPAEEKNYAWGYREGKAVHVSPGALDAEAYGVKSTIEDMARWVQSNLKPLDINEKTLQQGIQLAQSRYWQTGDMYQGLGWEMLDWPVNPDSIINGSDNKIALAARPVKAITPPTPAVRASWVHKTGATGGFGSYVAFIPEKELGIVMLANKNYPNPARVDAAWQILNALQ
Protocol: (§3) All kinetic measurements were carried out in competition assays using the fluorescent substrate FC-5 [36] under steady-state conditions monitoring hydrolysis, in 100 mM phosphate buffer pH 7.5 supplemented with 0.01% (v/v) Triton X-100 (Assay Buffer). Fluorescence was measured using a PHERAstarFS (BMG Labtech, Aylesbury, United Kingdom) plate-reader, recording emission spectra at λex = 380 nm and λem = 460 nm. IC50s were determined after 10 min incubation time of 500 pM AmpCEC with varying concentrations of inhibitors and assayed using 5 µM FC-5. Nonlinear regression analyses were carried out using GraphPad Prism V. 5.04 (GraphPad Software, San Diego, CA, USA).
As described for avibactam inhibition, the kinetics of bicyclic boronate inhibition of β-lactamases can be described assuming a two-step, reversible inhibition model:(1) E+I → k1 ←k−1 E:I → k2 ←k−2 E−I with E: enzyme; I: inhibitor; k1: association rate constant; k−1: dissociation rate constant; k2: binding rate constant, and k−2: recyclization rate constant.
To obtain the pseudo first-order rate constant kobs and the apparent inhibition constant Kiapp, the rate of FC-5 (5 µM) hydrolysis by AmpCEC (100 nM) was measured in the presence of varying concentrations of the inhibitor.
Plotting the resultant kobs values against the inhibitor concentration [I] (Figure S1b) and fitting to Equation (3) gives the apparent second-order rate constant (k2/K’) (3) kobs=k2+k2/K^′∗ I with K’ representing the equilibrium coefficient of AmpCEC inhibition in the presence of FC-5 in the set concentration of 5 µM.
This can then be corrected using the Michaelis constant (KM) of FC-5 for AmpCEC and the FC-5 concentration [S] according to Equation (4) to give the second-order rate constant (k2/K):(4) k2/K=k2/K^′∗ S/KM+1
The same data were used to determine the apparent inhibition constant Kiapp. The reciprocals of the initial rates were plotted against inhibitor concentration (Figure S1a), giving a straight line for which the value of the intercept divided by the slope gives Kiapp’. From this, Kiapp can be obtained after correction with the KM for FC-5 according to Equation (5):(5) Kiapp=Kiapp’/1+S/KM

[3] = target: T1, AmpC from Escherichia coli (AmpCEC); assay type: biochemical; settings: half-life of the enzyme-inhibitor complex, ln2/koff
Protocol: as §3
Off rates (k-2 or koff) were measured using the jump-dilution method (Figure S1c). AmpCEC (1 µM) was incubated with the respective inhibitor (10 µM for TAN, CB2 and CB3, and 100 µM for VAB) for 30 min at room temperature, then diluted 100,000 fold in the Assay Buffer (final enzyme concentration: 10 pM) and immediately assayed with 25 µM FC-5. The data were fitted to Equation (2) with V0 in this case representing the velocity of the no-enzyme control and VS representing the initial velocity of uninhibited enzyme.
The half-life of the enzyme-inhibitor complex t1/2 is given by Equation (6):(6) t1/2=ln2/koff

[4] = target: T1, AmpC from Escherichia coli (AmpCEC); assay: IC50 determination, 500 pM AmpCEC, 5 µM FC-5, 10 min pre-incubation; assay type: biochemical; settings: pIC50, 500 pM AmpCEC, 5 µM FC-5, 10 min inhibitor pre-incubation at room temperature
Protocol: as §3

With CC(C)(O/N=C(\C(=O)N[C@@H]1C(=O)N2C(C(=O)[O-])=C(C[n+]3ccccc3)CS[C@H]12)c1csc(N)n1)C(=O)O [CAZ, Ceftazidime] the MIC (DH5α Escherichia coli) was 1 µg/mL and the MIC ([1]; Escherichia coli, read-out: Minimum Inhibitory Concentration Ceftazidime) was 256 µg/mL.

For NCc1ccc(C(=O)N[C@H]2Cc3cccc(C(=O)O)c3OB2O)cc1 [CB2], the Ki ([2]; 100 nM AmpCEC, 5 µM FC-5) was 3000 nM and 3260 nM, the kinact/KI ([2]; second-order rate constant) was 81000 ± 6400 M⁻¹ s⁻¹ and the t1/2 [3] was 4.18 ± 0.41 min. For the same compound, the IC50 [4] was 31.6 nM and 32.4 nM.

O=C(O)c1cccc2c1OB(O)C(SCc1ccccc1)C2 (centres unmarked) [CB3] was tested, and the Ki ([2]; 100 nM AmpCEC, 5 µM FC-5) was 1000 nM and 1160 nM, the kinact/KI ([2]; second-order rate constant) was 224000 ± 21000 M⁻¹ s⁻¹ and the t1/2 [3] was 0.55 ± 0.34 min. The IC50 [4] was 29.5 nM and the “Minimum Inhibitory Concentration Ceftazidime (CAZ + inhibitor)” value ([1]; CAZ in combination with the inhibitor at a fixed concentration of 4 µg mL^−1, DH5α pAD7 AmpCEC) was 4 µg/mL.

For NCCN[C@H]1CC[C@H](CC(=O)N[C@H]2Cc3cccc(C(=O)O)c3OB2O)CC1 [TAN, taniborbactam], the Ki ([2]; 100 nM AmpCEC, 5 µM FC-5) was 4000 nM and 3730 nM, the kinact/KI ([2]; second-order rate constant) was 85600 ± 9200 M⁻¹ s⁻¹ and the t1/2 [3] was 4.55 ± 0.91 min. The IC50 [4] was 29.5 nM.

With O=C(O)C[C@@H]1CC[C@H](NC(=O)Cc2cccs2)B(O)O1 [VAB, vaborbactam] the k2/K ([2]; 100 nM AmpCEC, 5 µM FC-5, second-order rate constant) was 6.55 ± 0.46 M^−1 s^−1 × 10^3, the Ki ([2]; 100 nM AmpCEC, 5 µM FC-5) was 19000 nM and 19100 nM and the kinact/KI ([2]; second-order rate constant) was roughly 7000 M⁻¹ s⁻¹. The t1/2 [3] was 16.8 ± 0.7 min and the IC50 [4] was 501 nM and 479 nM.
